2 compounds from publication PMC4865297, “Macromolecular Crystallography and Structural Biology Databases at NIST” (Journal of Research of the National Institute of Standards …, 2001) can be followed below.

The target of assay [1] is T1, catabolite gene activator protein (CAP) (Escherichia coli, UniProt P0ACJ8, A145T).
T1 construct: gene crp; homodimer
T1 sequence (P0ACJ8 2-210 A145T): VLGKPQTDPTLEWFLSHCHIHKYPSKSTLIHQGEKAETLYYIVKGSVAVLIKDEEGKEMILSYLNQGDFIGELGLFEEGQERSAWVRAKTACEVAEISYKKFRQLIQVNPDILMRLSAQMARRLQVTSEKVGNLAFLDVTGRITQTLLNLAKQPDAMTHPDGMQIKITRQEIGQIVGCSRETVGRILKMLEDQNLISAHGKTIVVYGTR
The experiment in a line: X-ray crystal structure, soak. To be noted: crystals grown with cAMP soaked in 10 mM adenosine; bound in one subunit; text also prints the variant as Thr144Ala. It is filed as binding.

Assay [2] deals with T2, chorismate lyase (Escherichia coli, UniProt P26602, C15S/C82S).
T2 construct: gene ubiC; monomer, 164 residues
T2 sequence (P26602 2-165 C15S/C82S): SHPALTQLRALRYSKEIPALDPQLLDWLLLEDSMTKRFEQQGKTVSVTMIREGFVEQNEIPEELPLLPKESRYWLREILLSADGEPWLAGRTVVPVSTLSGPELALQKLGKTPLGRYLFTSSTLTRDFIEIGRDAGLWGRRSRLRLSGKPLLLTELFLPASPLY
The experiment in a line: X-ray crystal structure. It is filed as binding. To be noted: both cysteines changed to serine; product complex.

`Nc1ncnc2c1ncn2[C@@H]1O[C@H](CO)[C@@H](O)[C@H]1O` [adenosine]: the “X-ray crystal structure, soak” value in assay [1] was “Adenosine was preferentially substituted for cAMP in only one of the two CAP subunits”.

Turning to `O=C(O)c1ccc(O)cc1` [4-hydroxy benzoate], the X-ray crystal structure entry in assay [2] is “the active double Cys-to-Ser variant complexed with product were determined”.
